From PMC1208959 (Virology Journal, 2005)

What was measured:
[1] = target: HeV F and HeV G glycoproteins (Hendra virus, UniProt O89342); type: cell-based
[2] = target: NiV F and NiV G glycoproteins (Nipah virus, UniProt Q9IH63); type: cell-based
[3] = tested on: live HeV
[4] = tested on: live NiV

Chain of NiV F and NiV G glycoproteins (Q9IH63 110-546 limits assumed): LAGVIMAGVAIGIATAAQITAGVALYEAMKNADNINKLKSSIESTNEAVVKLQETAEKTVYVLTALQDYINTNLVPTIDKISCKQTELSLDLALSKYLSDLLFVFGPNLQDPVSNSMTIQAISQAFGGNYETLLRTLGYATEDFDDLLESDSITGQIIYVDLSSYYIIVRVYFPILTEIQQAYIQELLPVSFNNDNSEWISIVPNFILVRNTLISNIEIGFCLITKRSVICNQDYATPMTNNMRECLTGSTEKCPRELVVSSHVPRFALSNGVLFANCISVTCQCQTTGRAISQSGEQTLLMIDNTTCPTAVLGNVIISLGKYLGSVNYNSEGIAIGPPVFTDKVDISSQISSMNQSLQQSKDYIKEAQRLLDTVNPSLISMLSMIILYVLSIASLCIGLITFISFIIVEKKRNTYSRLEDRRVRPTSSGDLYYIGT
Chain of NiV F and NiV G glycoproteins (Q9IH63 27-109 partner limits assumed): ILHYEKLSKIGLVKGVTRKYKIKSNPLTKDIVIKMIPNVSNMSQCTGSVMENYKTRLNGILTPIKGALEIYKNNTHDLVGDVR
Chain of HeV F and HeV G glycoproteins (O89342 110-546 limits assumed): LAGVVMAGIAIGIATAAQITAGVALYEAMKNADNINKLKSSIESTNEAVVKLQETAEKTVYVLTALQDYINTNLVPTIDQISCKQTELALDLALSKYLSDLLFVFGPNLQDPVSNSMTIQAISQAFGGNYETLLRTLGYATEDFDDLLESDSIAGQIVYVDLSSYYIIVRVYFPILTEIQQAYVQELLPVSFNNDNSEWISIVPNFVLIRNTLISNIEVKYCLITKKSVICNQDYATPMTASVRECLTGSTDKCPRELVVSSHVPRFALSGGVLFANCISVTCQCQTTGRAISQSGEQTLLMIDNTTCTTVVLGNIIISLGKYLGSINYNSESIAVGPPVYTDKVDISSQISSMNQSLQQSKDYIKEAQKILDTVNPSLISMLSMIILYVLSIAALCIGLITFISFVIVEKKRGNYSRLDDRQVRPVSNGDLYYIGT
Chain of HeV F and HeV G glycoproteins (O89342 27-109 partner limits assumed): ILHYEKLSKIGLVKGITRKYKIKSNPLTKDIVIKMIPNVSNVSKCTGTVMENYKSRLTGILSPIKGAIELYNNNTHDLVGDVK

Compound	reduction of activity versus N-PEG-NiV FC2 [1]	reduction of activity versus N-PEG-NiV FC2 [2]	inhibitory effect on cell-fusion (in words) [1]	inhibitory effect on cell-fusion (in words) [2]	effect on virus infection (in words) [3]	syncytial morphology and size (in words) [3]	effect on virus infection (in words) [4]	syncytial morphology and size (in words) [4]
CC[C@H](C)[C@H](NC(=O)[C@H](Cc1ccc(O)cc1)NC(=O)[C@H](CC(=O)O)NC(=O)[C@H](CCCCN)NC(=O)[C@H](CO)NC(=O)[C@H](CCC(N)=O)NC(=O)[C@H](CCC(N)=O)NC(=O)[C@H](CC(C)C)NC(=O)[C@H](CO)NC(=O)[C@H](CCC(N)=O)NC(=O)[C@H](CC(N)=O)NC(=O)[C@H](CCSC)NC(=O)[C@H](CO)NC(=O)[C@H](CO)NC(=O)[C@@H](NC(=O)[C@H](CCC(N)=O)NC(=O)[C@H](CO)NC(=O)[C@H](CO)NC(=O)[C@@H](NC(=O)[C@H](CC(=O)O)NC(=O)[C@@H](NC(=O)[C@H](CCCCN)NC(C)=O)C(C)C)[C@@H](C)CC)[C@@H](C)CC)C(=O)N[C@@H](CCCCN)C(=O)N[C@@H](CCC(=O)O)C(=O)N[C@@H](C)C(=O)N[C@@H](CCC(N)=O)C(=O)N[C@@H](CCCNC(=N)N)C(=O)N[C@@H](CC(C)C)C(=O)N[C@@H](CC(C)C)C(=O)N[C@@H](CC(=O)O)C(=O)N[C@H](C(=O)N[C@H](C(=O)N[C@@H](CC(N)=O)C(=O)N1CCC[C@H]1C(=O)N[C@@H](CO)C(=O)N[C@@H](CC(C)C)C(=O)NCCOCCOCCOCCOCCOCCOCCOCCOCCOCCOCCOCCOCCC(=O)O)C(C)C)[C@@H](C)O [C-PEG NiV FC2]	approximately 20 fold	approximately 20 fold						
Ac-KQSSMISLQSQKSINSLPSQIRDYVQKTVLLAEDND-NH2 [capped-ScNiV FC2]			no inhibitory effect	no inhibitory effect				
KQSSMISLQSQKSINSLPSQIRDYVQKTVLLAEDND [C-PEG-ScNiV FC2, reference compound]			no inhibitory activity	no inhibitory activity	no effect at any concentration tested	identical to those observed in the absence of any peptide	no effect at any concentration tested	identical to those observed in the absence of any peptide
